Reference: US20160232293A1, “DRUG SENSITIVITY BIOMARKERS AND METHODS OF IDENTIFYING AND USING DRUG SENSITIVITY BIOMARKERS” (SANFORD-BURNHAM MEDICAL RESEARCH INSTITUTE, priority 2013, published 2016)

Columns and labels:
human cancer cell lines = assay: e-Drug analysis: CCLE drug activity (activity area) in cell lines with missense mutations in a protein functional region (PFR) or whole protein versus cell lines without; format: cell-based
From the text: The CCLE (Cancer Cell Line Encyclopedia; website broadinstitute.org/ccle; Barretina et al., Nature 483:603-607 (2012)) dataset, which includes the mutation profiles of 1,668 genes in 906 human cancer cell lines and drug activity data for 24 different anticancer compounds, was used in the present study. The analysis was focused on missense mutations, as truncating mutations can sometimes be misleading when performing the analysis in terms of functional regions. For example, when analyzing a protein that contains two different domains, if a truncating mutation happens in the first domain, it is not obvious whether the functional consequences of the mutation are caused by the fact that the first domain is altered or that the second domain is missing. […] From the original 42,603 genomic-point mutations in 1,668 genes, 156,817 protein missense mutations were obtained in 9,311 proteins.
CCLE contains data on the drug activity of 24 different compounds in 479 cell lines from 8-point dose-response curves. […] In our analysis only the activity area was used because, according to the CCLE, it captures simultaneously both variables of drug activity: its efficacy and its potency.
For the present study, protein functional regions were defined as domains or intrinsically disordered regions. […] To identify protein domains, annotated Pfam domains were retrieved from ENSEMBL for each protein isoform. A set of 1,300 potential domains identified by AIDA (ab initio domain assembly; Xu et al., Nucleic Acids Research 12:W308-W313 (2014) (Web Server issue); Internet site ffas.burnham.org/AIDA/), an algorithm based on remote homology, were also included. Foldindex (Prilusky et al., Bioinformatics 21(16):3435-8 (2005)) was used to predict intrinsically disordered regions for each protein. Those regions with a predicted unfolded score below −0.1 were included in the present study.
The different mutations of each cell line were mapped to these protein features, giving a total of 30,798 altered regions in 906 cell lines. These regions are divided into 19,918 Pfam domains and 10,880 intrinsically disordered regions. Note that the features can overlap, as the predictions were performed independently and there is no reason why, for example, an intrinsically unfolded region cannot overlap with (or even be located within) a Pfam domain. Note also that these numbers refer to PFRs in all known protein isoforms according to ENSEMBL v72.
The e-Drug analysis protocol looks for PFRs that, when mutated, correlate with drug activity of the different drugs. […] A Wilcoxon test was then performed comparing the drug activity of each compound in the two groups and kept those with a p-value below 0.01. Finally, for those gene regions associated to a certain drug, the activity of the cell lines mutated in the region of interest was compared to the activity of cell lines mutated in other regions of the gene. […] In this case, since the number of cell lines in both groups is lower and fewer tests were performed, a significance threshold of 0.05 instead of 0.01 was established. True positives were considered those PFR that passed both thresholds and that are not in proteins that show an association (p<0.01) with the same drug at the whole-protein level. Note that the analysis is performed independently for each PFR.
To overcome these limitations and decrease the number of false positives among the associations three different thresholds were required for an association to be considered positive (see

[1] = TCGA survival analysis of patients treated with CCLE drugs, grouped by mutations in resistance-associated PFRs; format: in vivo, human; conditions: for outcome of treated patients with mutations in PFRs associated with resistance vs mutations in other regions of the same proteins or no mutations: TCGA patients treated with Topoisomerase inhibitors Irinotecan and Topotecan (n=188), pooled, p<0.01; for prediction of patient outcome by mutation status of the whole proteins that contain the associated PFRs: TCGA patients treated with Topoisomerase inhibitors, whole-protein level
From the text: Both clinical and mutation data for the 3,205 tumors described in the pan-cancer analysis of the TCGA were downloaded. Data from patients that had not been treated with any of the drugs included in the CCLE was then filtered out. Since most drugs included in the CCLE are still in under clinical research, there were only enough patients to analyze 2 different drugs: paclitaxel (n=778) and irinotecan (n=58). Each of these subsets of patients have then been classified in 3 groups: those that have a mutation in a PFR that, according to the analysis, increases resistance to the drug used to treat them; those with mutations in other regions of the same genes; and those with no mutations in these genes.
As a result very few patients in the TCGA dataset carry mutations in the former type of regions and were treated with the matching drug. The survival analysis was performed using the “Survival” package for R.

Question: For `Cn1c(Nc2ccc(C(F)(F)F)cc2)nc2cc(Oc3ccnc(-c4ncc(C(F)(F)F)[nH]4)c3)ccc21` [RAF265], which “drug activity associated with mutations in the ATPase domain (Pf00488) of MSH6” value (human cancer cell lines; PFR level, missense mutations, MSH6 Pf00488) is on record?
Answer: higher

Question: Which “drug activity associated with mutations in the connector domain (Pf05188) of MSH6” value (human cancer cell lines; PFR level, missense mutations, MSH6 Pf05188) does the source give for `CS(=O)(=O)CCNCc1ccc(-c2ccc3ncnc(Nc4ccc(OCc5cccc(F)c5)c(Cl)c4)c3c2)o1` [Lapatinib] here?
Answer: higher

Question: With `CC(=O)O[C@H]1C(=O)[C@@]2(C)[C@H]([C@H](OC(=O)c3ccccc3)[C@]3(O)C[C@H](OC(=O)[C@H](O)[C@@H](NC(=O)c4ccccc4)c4ccccc4)C(C)=C1C3(C)C)[C@]1(OC(C)=O)CO[C@@H]1C[C@@H]2O` [Paclitaxel] as the molecule, how does the “outcome of treated patients with mutations in PFRs associated with increased resistance” value ([1]; TCGA patients treated with paclitaxel (n=778), p>0.9) read?
Answer: no differences

Question: For `CCc1c2c(nc3ccc(OC(=O)N4CCC(N5CCCCC5)CC4)cc13)-c1cc3c(c(=O)n1C2)COC(=O)[C@]3(O)CC` [Irinotecan], which “outcome of treated patients with mutations in PFRs associated with resistance vs mutations in other regions of the same proteins or no mutations” value [1] is on record?
Answer: worse outcomes

Question: And the “prediction of patient outcome by mutation status of the whole proteins that contain the associated PFRs” value ([1]; p>0.9)?
Answer: cannot predict the outcome

Question: With `CC[C@@]1(O)C(=O)OCc2c1cc1n(c2=O)Cc2cc3c(CN(C)C)c(O)ccc3nc2-1` [Topotecan] as the molecule, how does the “outcome of treated patients with mutations in PFRs associated with resistance vs mutations in other regions of the same proteins or no mutations” value [1] read?
Answer: worse outcomes

Question: What about the “prediction of patient outcome by mutation status of the whole proteins that contain the associated PFRs” value ([1]; p>0.9) of the same molecule?
Answer: cannot predict the outcome

Question: Which “association of MSH6 mutations with the drug at protein level” value (human cancer cell lines; protein level analysis, MSH6 whole protein) does the source give for `C#Cc1cccc(Nc2ncnc3cc(OCCOC)c(OCCOC)cc23)c1` [Erlotinib] here?
Answer: potential association

Question: With `C[C@@H](Oc1cc(-c2cnn(C3CCNCC3)c2)cnc1N)c1c(Cl)ccc(F)c1Cl` [PF2341066] as the molecule, how does the “sensitivity of cell lines with mutations in the ERBB3 receptor domain” value (human cancer cell lines; PFR level analysis, N-terminal EGF receptor domain of ERBB3) read?
Answer: resistant

Question: What about the “behavior of cell lines with mutations in any other PFR of ERBB3” value (human cancer cell lines; PFR level analysis, other PFRs of ERBB3 such as the kinase domain) of the same molecule?
Answer: do not show any specific behavior

Question: What about the “activity of the drug in cell lines with mutations in ERBB3” value (human cancer cell lines; protein level analysis, ERBB3 whole protein) of the same molecule?
Answer: do not show any bias
